Test results reported in doi:10.1101/141937v1 (biorxiv, 2017).

Target: T1, EmrE (Escherichia coli, UniProt P23895)
T1 sequence (P23895 1-110): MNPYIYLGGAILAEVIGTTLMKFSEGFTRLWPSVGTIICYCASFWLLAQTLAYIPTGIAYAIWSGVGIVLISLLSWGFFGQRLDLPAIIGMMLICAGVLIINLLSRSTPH
Assay: biochemical

Kd: 70 ± 9 µM
SMILES: c1ccc([P+](c2ccccc2)(c2ccccc2)c2ccccc2)cc1 [TPP^+]
